# Target: recombinant human (rh)ACE2 (Homo sapiens, UniProt Q9BYF1)
# Experiment: fluorogenic exopeptidase assay
# Assay type: biochemical
# Sequence of recombinant human (rh)ACE2 (Q9BYF1 18-740 limits assumed): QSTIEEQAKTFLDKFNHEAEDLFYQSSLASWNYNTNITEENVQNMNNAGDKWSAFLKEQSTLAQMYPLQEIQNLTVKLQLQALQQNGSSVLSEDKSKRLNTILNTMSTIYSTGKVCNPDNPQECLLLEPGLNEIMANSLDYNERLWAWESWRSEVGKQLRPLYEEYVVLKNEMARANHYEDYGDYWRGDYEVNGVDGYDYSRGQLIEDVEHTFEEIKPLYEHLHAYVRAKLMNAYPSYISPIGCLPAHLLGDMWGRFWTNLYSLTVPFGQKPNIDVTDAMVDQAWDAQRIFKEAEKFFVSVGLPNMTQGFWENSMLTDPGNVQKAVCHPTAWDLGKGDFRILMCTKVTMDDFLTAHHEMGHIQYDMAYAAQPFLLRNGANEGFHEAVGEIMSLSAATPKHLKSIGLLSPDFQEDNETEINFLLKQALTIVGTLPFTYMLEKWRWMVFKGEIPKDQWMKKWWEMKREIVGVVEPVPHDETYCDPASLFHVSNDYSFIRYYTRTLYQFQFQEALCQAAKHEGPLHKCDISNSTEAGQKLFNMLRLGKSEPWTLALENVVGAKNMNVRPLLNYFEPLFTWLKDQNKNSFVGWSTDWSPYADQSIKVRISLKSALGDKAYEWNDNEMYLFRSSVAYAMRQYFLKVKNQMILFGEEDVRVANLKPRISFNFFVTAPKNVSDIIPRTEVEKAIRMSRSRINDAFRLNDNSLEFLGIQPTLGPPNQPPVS
row,SMILES,IC50 [nM]
1,CC(C)C[C@H](N[C@@H](Cc1cncn1Cc1cc(Cl)cc(Cl)c1)C(=O)O)C(=O)O [MLN-4760],29.7
2,"CC(C)C[C@H](N[C@@H](Cc1cncn1Cc1ccc(N)cc1)C(=O)O)C(=O)O [compound 1, (S)-2-(((S)-2-(1-(4-aminobenzyl)-1H-imidazol-5-yl)-1-carboxyethyl)amino)-4-methylpentanoic acid]",11.3
